Assays:
Huh-7 = experiment: Antiproliferative activity against human Huh-7 cells assessed as inhibition of cell proliferation measured after 72 hrs by MTT assay; type: functional, cell-based; details: Huh-7, 72 h
T-24 [1] = experiment: Antiproliferative activity against human T24 cells assessed as inhibition of cell proliferation measured after 72 hrs by MTT assay; type: functional, cell-based; details: T-24, 72 h
A549 = experiment: Antiproliferative activity against human A549 cells assessed as inhibition of cell proliferation measured after 72 hrs by MTT assay; type: functional, cell-based; details: A549, 72 h
HCT-116 = experiment: Antiproliferative activity against human HCT-116 cells assessed as inhibition of cell proliferation measured after 72 hrs by MTT assay; type: functional, cell-based; details: HCT-116, 72 h
HT-29 = experiment: Antiproliferative activity against human HT-29 cells assessed as inhibition of cell proliferation measured after 72 hrs by MTT assay; type: functional, cell-based; details: HT-29, 72 h
L1210 = experiment: Antiproliferative activity against mouse L1210 cells assessed as inhibition of cell proliferation measured after 72 hrs by MTT assay; type: functional, cell-based; details: L1210, 72 h
[2] = Antiproliferative activity against […] MB49 cells assessed as inhibition of cell proliferation measured after 72 hrs by MTT assay; type: functional, cell-based; details: MB49, 72 h
T-24 [3] = experiment: Antiproliferative activity against human T24 cells assessed as inhibition of cell proliferation at 0.25 uM incubated for 72 to 120 hrs by MTT assay relative to control; type: functional; details: time 72-120 hrs
Bel-7402 = experiment: Antiproliferative activity against human Bel-7402 cells assessed as inhibition of cell proliferation measured after 72 hrs by MTT assay; type: functional, cell-based; details: Bel-7402, 72 h
[4] = Cytotoxicity against human LO2 cells measured after 72 hrs by MTT assay; type: toxicity, cell-based, L02

SMILES | IC50 (Huh-7) | IC50 (T-24 [1]) | IC50 (A549) | IC50 (HCT-116) | IC50 (HT-29) | IC50 (L1210) | IC50 [2] | inhibition at 0.25 µM (T-24 [3]) | IC50 (Bel-7402) | IC50 at 72 h [4]
COc1cccc2c1C(=O)c1c(O)c3c(c(O)c1C2=O)C[C@@](O)(C(=O)CO)C[C@@H]3O[C@H]1C[C@H](N)[C@H](O)[C@H](C)O1 [DOXORUBICIN] | 620 nM | 250 nM | 440 nM | < 1000 nM | 420 nM | < 1000 nM | > 1000 nM |  |  | 
C[C@H]1CCC/C=C/[C@@H]2C[C@H](OC(=O)c3cccnc3)C[C@H]2[C@H](OC(=O)c2cccnc2)/C=C/C(=O)O1 |  |  |  |  |  |  |  | < 40% |  | 
C[C@H]1CCC/C=C/[C@@H]2C[C@H](O)C[C@H]2[C@H](O)/C=C/C(=O)O1 [BREFELDIN A] | 180 nM | 80 nM | 60 nM | 100 nM | 70 nM | 1570 nM | 2160 nM |  | 120 nM | 140 nM
C[C@H]1CCC/C=C/[C@@H]2C[C@H](OC(=O)c3cccnc3)C[C@H]2[C@H](O)/C=C/C(=O)O1 |  |  |  |  |  |  |  | < 40% |  | 

Source: ChEMBL document CHEMBL6103652, “Niacin Ester Derivative of Brefeldin A as a Potential Dual-Target Arf1/BMX Inhibitor for Bladder Cancer” (J Nat Prod, 2025)
